Assay results taken from US20100125053A1, “Allosteric Modulation of the Dopamine Transporter Protein for the Treatment of HIV-1 Induced Neurologic Dysfunction” (priority 2008, published 2010).

System: striatal synaptosomes
Assay: [3H]leucine uptake assay in rat striatal synaptosomes (electrochemical gradients)
Assay type: cell-based
Conditions: 15 min preincubation, [3H]leucine 10 min
Description: [^3H]Leucine Uptake Assay. […] The uptake assay was performed in duplicate with a final volume of 250 μl. […] TatΔ31-61 and leucine were chosen as negative and positive controls, respectively. Assay tubes were placed in an oxygenated metabolic shaker at 34° C. for 15 min. Subsequently, 1 μM [^3H]leucine (final concentration, 25 μl) was added to each tube and incubation was continued for 10 min at 34° C. in the metabolic shaker. […] Nonspecific uptake for [^3H]leucine and [^3H]DA was determined in the presence of 10 mM L-lysine and 10 μM nomifensine, respectively. Incubation was terminated by the addition of 3 ml of ice-cold assay buffer, followed by immediate filtration through Whatman GF/B glass fiber filters. Filters were washed 3 times with 3 ml ice-cold assay buffer using a Brandel cell harvester.

CC(C)C[C@H](N)C(=O)O [leucine]
inhibition at 1 µM (1 μM): ~10% | inhibition at 10 µM (10 μM, read-out: inhibition / decrease of [3H]leucine uptake): ~40%
